Source: patent publication US5395932A, “2,3-,4-,5-,6-,7-,8-,9- and/or 10-substituted dibenzoxazepine compounds, pharmaceutical compositions and methods of use” (G. D. Searle & Co., priority 1993, dated 1995)
Where a name gives a salt, the structure may show the parent alone.

Experiments:
[1] = biological target: T1, prostaglandin E2-induced contractions of segments of guinea pig ileum (Cavia porcellus, UniProt A0A286XHJ6); assay: Prostaglandin (PGE) Antagonism Assay (guinea pig ileum); format: cell-based, male albino guinea pigs; conditions: estimated from 3 micromolar (dose ratio ≥2) or Schild plot (dose ratio ≥5); 37° C.; read-out: PGE ANTAGONISM IN GUINEA PIG ILEUM (pA2) (converted)
T1 construct: Segments of ileum about 2 cm long were then cut and mounted in a 10-mL tissue bath; from tissue; host or cells: guinea pig ileum segments
T1 sequence (A0A286XHJ6 1-405): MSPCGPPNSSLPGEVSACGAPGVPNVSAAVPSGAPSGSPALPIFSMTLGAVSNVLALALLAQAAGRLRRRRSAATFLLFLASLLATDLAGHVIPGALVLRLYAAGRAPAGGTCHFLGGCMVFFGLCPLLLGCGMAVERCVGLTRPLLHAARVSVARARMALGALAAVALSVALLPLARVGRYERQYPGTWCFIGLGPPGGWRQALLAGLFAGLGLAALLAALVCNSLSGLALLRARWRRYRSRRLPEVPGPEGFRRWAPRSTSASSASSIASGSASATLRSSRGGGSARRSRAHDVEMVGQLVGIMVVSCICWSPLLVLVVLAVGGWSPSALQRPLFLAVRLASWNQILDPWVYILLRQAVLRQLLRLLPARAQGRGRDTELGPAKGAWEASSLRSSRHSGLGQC
Description: The phrase "EC50 concentration" as used herein means that concentration of a compound or drug which is necessary to elicit a 50% maximal biological response and, thus, which is necessary to elicit a 50% reduction in the contractions of guinea pig ileum segments in a prostaglandin antagonism assay. (b) Prostaglandin (PGE) Antagonism Assay In order to determine the effectiveness of several of the compounds of the present invention ("test compounds") as prostaglandin E2 antagonists,a prostaglandin antagonism assay was conducted, as described below, to determine the ability of these compounds to inhibit prostaglandin E2 -induced contractions of segments of guinea pig ileum. […] Male albino guinea pigs weighing 200 to 500 grams were sacrificed by cervical dislocation. The ilea were then quickly removed from the guinea pigs and placed in a modified Tyrode solution, a solution which is known to those skilled in the art, containing one-half of the usual amount of magnesium ions. Segments of ileum about 2 cm long were then cut and mounted in a 10-mL tissue bath containing the modified Tyrode solution. The solution was maintained at 37° C. and aerated with a gaseous mixture of 95% oxygen and 5% carbon dioxide. Data for a control prostaglandin E2 dose response curve plotting concentration of prostaglandin E2 versus the intensity of contractions, detected isotonically, was then obtained by experimentally adjusting the dose of the prostaglandin E2 being injected into the tissue bath, in a manner known by those of skill in the art. Solutions or suspensions containing an initial concentration (3 micromolar) of a test compound in modified Tyrode solution ("test solutions/suspensions") were then separately substituted for the control bath solution. Each test solution/suspension was then kept in constant contact with the ileum tissue, except for brief periods to drain the bath in preparation for rinsing with fresh test solution/suspension. A second prostaglandin E2 dose response curve was then generated for prostaglandin E2 in the presence of a test compound. A dose ratio of EC50 doses was then calculated from the results of each test in a manner known by those of skill in the art. A test compound was determined to be "active" if the initial concentration used yielded at least a two-fold shift (dose ratio greater than or equal to 2) in the dose response curve for prostaglandin E2. […] The compounds of the present invention which were tested in this assay, and for which results are presented in Table 1, correspond to the particular examples specified in Table 1.

[2] = Writhing Assay (PBQ-induced writhing, analgesia); format: in vivo, Charles River male albino mice; conditions: Mus musculus, po, intragastric; for responders at 30 mg/kg: 30 mg per kilogram, 25 minutes before PBQ i.p., writhes ≤ one-half median of saline control, read-out: WRITHING ASSAY, number of mice out of 9 or 10 in which test compound produced analgesia (converted); for ED50: mice, PBQ
Method: The phrase "ED50 dose" as used herein means that dose of a compound or drug which produced a biological effect, such as producing analgesia, in 50% of the animals to which the compound or drug was administered. The Writhing Assay is one of the most widely-used experimental procedures for measuring the analgesic activity of different narcotic and nonnarcotic analgesic agents, and involves the continuous, chemically-induced pain of visceral origin to an animal, such as a mouse or rat. [Gyires et al., Arch. int. Pharmacodyn, 267, 131-140 (1984); […] al., Fed. Proc., 15, 494 (1956); Koster et al., Fed. Proc., 18, 412 (1959); and Witken et al., J. Pharmacol. exp. Ther., 133, 400-408 (1961).] Chemicals which may be used to induce this pain include phenylbenzoquinone (PBQ) and acetic acid. As a result of the chemical irritation to the animal, a characteristic stretching and writhing of the animal (dorsiflexion of the animal's back, extension of its hindlimbs and the strong contraction of its abdominal musculature) will generally occur. […] Drugs which reduce the number of writhes of the animal appear to restore the normal nociceptive threshold of the animal. […] Charles River male albino mice, weighing 20 to 30 grams were used in this assay. Twenty-five minutes after intragastric administration to nine or ten mice of 30 mg per kilogram of body weight of a compound of the present invention ("test compound"), […] per 10 g of body weight of a 0.025% w/v solution of PBQ was injected intraperitoneally into each mouse. Ten mice which were given saline in place of a test compound of the invention were used as a control group. Five minutes later, each mouse was individually placed into a glass beaker for observation, and the number of writhes occurring during the following ten-minute period was counted. A test compound was considered to have produced analgesia in a mouse if, in accordance with the conditions set forth above, and under the test criteria employed for this assay, after the administration of 30 mg per kilogram of body weight of a compound of the present invention to the mouse, the number of writhes elicited by a mouse injected with PBQ was equal to, or less than, one-half the median number of writhes recorded for the saline-treated control group of mice that day, as described by Taber in "Predictive Value of Analgesic Assays in Mice and Rats," Advances in Biochemical Psychopharmacology, 8, 191 (1974). The results for the particular compounds of the present invention analyzed in this assay, and discussed in the examples identified below which correspond thereto, are presented in Table 1 hereinbelow as fractions under the heading "WRITHING ASSAY." The fractions indicate the number of mice out of nine or ten in which a test compound produced analgesia. The standard initial screening dose of a test compound employed in this assay was 30 milligrams per […] of body weight. If this initial screening dose of the test compound produced analgesia in seven of nine or ten mice, then the effect of additional doses of the test compound on the writhing response was evaluated, and then the ED50 dose was generally calculated. (The slopes of the dose-response curves for all test compounds analyzed were compared as described by Tallarida and Murray, Manual of Pharmacologic Calculations, Page 11 (Springer Verlag, New York, 1981)). All ED50 doses calculated are also presented below as whole numbers in Table 1, under the heading "WRITHING ASSAY."

O=C(O)c1csc(CN2Cc3ccccc3Oc3ccc(Cl)cc32)n1 [Example 20, 2-[(8-chlorodibenz[b,f][1,4]oxazepin-10(11H)yl)methyl]-4-thiazolecarboxylicacid, sodium salt]
Kb [1]: 0.00794 µM
responders at 30 mg/kg [2]: 50%

O=C(NCc1ccncc1)c1csc(CN2Cc3ccccc3Oc3ccc(Cl)cc32)n1 [Example 21, 2-[(8-chlorodibenzb,f][1,4]oxazepin-10(11H)yl)methyl]-N-(4-pyridinylmethyl)-4-thiazolecarboxamide, acetate, hydrochloride]
Kb [1]: 0.794 µM
responders at 30 mg/kg [2]: 70%

Cl.O=C(NCc1ccncc1)c1csc(N2Cc3ccccc3Oc3ccc(Cl)cc32)n1 [Example 26, 2-(8-Chlorodibenz[b,f][1,4]oxazepin-10(11H)-yl)-N-(4-pyridinylmethyl)-4-thiazolecarboxamide, monohydrochloride]
Kb [1]: 0.794 µM
ED50 [2]: 9.77 mg/kg

O=C(Nc1ccncc1)c1csc(N2Cc3ccccc3Oc3ccc(Cl)cc32)n1 [Example 28, 2-(8-Chlorodibenz[b,f][1,4]oxazepin-10(11H)-yl)-N-4-pyridinyl-4-thiazolecarboxamide, hydrochloride]
Kb [1]: 3.16 µM
responders at 30 mg/kg [2]: 100%

O=C(Nc1cccnc1)c1csc(N2Cc3ccccc3Oc3ccc(Cl)cc32)n1 [Example 29, 2-(8-Chlorodibenz[b,f][1,4]oxazepin-10(11H)-yl)-N-3-pyridinyl-4-thiazolecarboxamide, hydrochloride]
Kb [1]: 1 µM
responders at 30 mg/kg [2]: 60%

O=C(CCc1ccncc1)c1csc(N2Cc3ccccc3Oc3ccc(Cl)cc32)n1 [Example 32, 1-[2-(8-Chlorodibenz[b,f][1,4]oxazepin-10(11H)-yl)-4-thiazolyl]-3-(4-pyridinyl)-1-propanone, monohydrochloride]
Kb [1]: 0.631 µM
responders at 30 mg/kg [2]: 60%

OC(/C=C\c1ccncc1)c1csc(N2Cc3ccccc3Oc3ccc(Cl)cc32)n1 (centres unmarked) [Example 34A, 2-(8-Chlorodibenz[b,f][1,4]oxazepin-10(11H)-yl)-a-[2Z(4-pyridinyl)ethenyl]-4-thiazolemethanol, hydrochloride]
Kb [1]: 0.794 µM
ED50 [2]: 9.7 mg/kg

OC(CCc1ccncc1)c1csc(N2Cc3ccccc3Oc3ccc(Cl)cc32)n1 (stereo not drawn) [Example 34B, α-[2-(8-Chlorodibenz[b,f][1,4]oxazepin-10(11H)-yl)-4-thiazolyl]-4-pyridinepropanol, dihydrochloride]
Kb [1]: 1.58 µM
responders at 30 mg/kg [2]: 50%

O=C(NCc1csc(N2Cc3ccccc3Oc3ccc(Cl)cc32)n1)c1ccncc1 [Example 36, N-[[2-(8-Chlorodibenz[b,f][1,4]oxazepin-10(11H)-yl)-4-thiazolyl]methyl]-4-pyridinecarboxamide, hydrochloride]
Kb [1]: 0.631 µM
responders at 30 mg/kg [2]: 60%

O=C(NCc1cccnc1)c1csc(N2Cc3ccccc3Oc3ccc(Cl)cc32)n1 [Example 37, 2-(8-Chlorodibenz[b,f][1,4]oxazepin-10(11H)-yl)-N-(3-pyridinylmethyl)-4-thiazolecarboxamide, hydrochloride]
Kb [1]: 1 µM
responders at 30 mg/kg [2]: 10%
